Measurements as given in patent US6426068B1, “Therapeutic uses of heterologous superoxide dismutase (HSD), and method for selecting said HSD” (Fractales Biotech, priority 1998, dated 2002).

B1: yeast Cu—SOD: yeast Cu—SOD (protein, UniProt P00445 2-154, looked up)
Superoxide dismutase [Cu-Zn]: VQAVAVLKGDAGVSGVVKFEQASESEPTTVSYEIAGNSPNAERGFHIHEFGDATNGCVSAGPHFNPFKKTHGAPTDEVRHVGDMGNVKTDENGVAKGSFKDSLIKLIGPTSVVGRSVVIHAGQDDLGKGDTEESLKTGNAGPRPACGVIGLTN
B2: Mn—SOD of E. coli: manganese SOD of E. coli (protein, UniProt P00448 2-206, looked up)
Superoxide dismutase [Mn]: SYTLPSLPYAYDALEPHFDKQTMEIHHTKHHQTYVNNANAALESLPEFANLPVEELITKLDQLPADKKTVLRNNAGGHANHSLFWKGLKKGTTLQGDLKAAIERDFGSVDNFKAEFEKAAASRFGSGWAWLVLKGDKLAVVSTANQDSPLMGEAISGASGFPIMGLDVWEHAYYLKFQNRRPDYIKEFWNVVNWDEAAARFAAKK

Tests used:
human macrophages [1] = assay: Apoptosis of human macrophages with β-amyloid or MPTP; format: cell-based; conditions: 10 μg/ml, 48 hours, FIGS. 12 and 13
human macrophages [2] = assay: TNF-α production by human macrophages with β-amyloid or MPTP; conditions: 10 μg/ml, 48 hours, FIGS. 12 and 13
Method: The CLCs are isolated from 23 healthy individuals, under the same conditions as those set out above. The adherent cell populations are obtained by incubating the CLCs (1×10^7 cells/ml) either in Petri dishes (Nunc) or in 6-well culture plates (Nunc) for 30 min at 37° C. in an RPMI 1640 medium supplemented with foetal calf serum at 10% (v/v) . The monocytes are then recovered by scraping the plates after adding a cold solution of PBS containing 1 mM EDTA. Cell preparations which comprise more than 85% of viable macrophages are estimated by Trypan blue exclusion and staining with a nonspecific esterase.
The macrophages are cultured at a final concentration of 2×10^6 cells/ml in 12- or 24-well plastic culture plates (Nunc) and in an Iscove medium supplemented with 100 U/ml of penicillin, 100 μg/ml of streptomycin and 5% of foetal calf serum.
The cells are incubated for 48 hours at 37° C. in a humid atmosphere (100%) containing 95% air and 5% CO2, in the presence of absence of 10 μg/ml of β-amyloid or MPTP.
The cell supernatants are recovered for measuring the TNF and the nitrites, while apoptosis is evaluated directly on the cells.

[3] = system: glutathione peroxidase (GPx), Mn—SOD, inducible NO synthase (iNOs); assay: Immuno-redox activity of HSD1/anti-HSD1 immune complexes in U937 and U1 cells; conditions: noninfected U937 and U1 cells; HSD1 10 μg/ml (30 U/ml), anti-HSD1 antibodies 10 μg/ml; FIG. 16
Method: U937 cells which are chronically infected with HIV-1 (U1 cells), and which have a low p24 production level (<250 pg/10^5 cells/ml in a 3-day supernatant) are cultured in an RPMI medium supplemented with L-glutamine, penicillin, streptomycin and foetal calf serum at 10% (Gibco products). They are used for the production of p24, and to evaluate apoptosis.

Mn—SOD [4] = assay: Endogenous SOD (dismutase) activity of U937 cells after exogenous SOD; format: cell-based, human; conditions: SOD 30 U/ml, FIG. 2
Method: U937 cells, untreated or treated with HIV-Tat protein, in the presence or absence of the abovementioned SODs, are lysed in a detergent buffer comprising: 10 mM Tris-HCl pH 7.4, 0.1% of SDS, 1% of Nonidet P-40, 10 μg/ml of leupeptin, 100 μg/ml of PMSF and 2 μg/ml of aprotinin, by heating at 85° C. for 5 min. The lysate is then briefly sonicated (3×30 sec).
The total superoxide dismutase activity is measured on the sonicated lysates obtained as described above by its capacity to inhibit the reduction of ferrocytochrome c by the superoxide radicals produced by the xanthin oxidase/xanthine system (McCord. J. M., 1969, J. Biol. Chem. 244, 6049). One unit of superoxide dismutase is defined as the amount which inhibits 50% of the reduction of cytochrome c at room temperature and at pH 7.8.

Mn—SOD [5] = assay: Endogenous SOD expression in U937 cells (SDS-PAGE / immunoblot); format: cell-based, human; conditions: HIV-Tat activated U937 cells (10 μg/ml Tat); SOD 30 U/ml, 24 hours; FIG. 1
[6] = system: glutathione peroxidase (Gpx); assay: Glutathione peroxidase transcription in U937 cells (RT-PCR); conditions: FIG. 3
Method: The human promonocytic leukaemia cell line U937 is cultured at a final concentration of 2×10^5 cells/ml in an Iscove medium enriched with 100 U/ml of penicillin, 100 μg/ml of streptomycin and 5% of foetal calf serum, in the presence (activated) or absence (control) of 10 μg/ml of HIV-Tat protein.
After stimulation and treatment with various sources and concentrations of SOD, the U937 cells are harvested in a phosphate-buffered cold physiological saline, and counted. The total RNA is extracted by standard techniques (Chomczynski. P., 1987, Anal. Biochem. 162, 156), in 1 ml of TRIzol reagent (Life Technologies ≠15596), according to the manufacturer's instructions. After its extraction, the RNA is precipitated with isopropyl alcohol, and the pellets are washed in 70% ethanol and air dried. The dried pellets are resuspended in 50 μl of 0.5 mM EDTA, pH 8, and quantified by spectrophotometry. […]
The amplification program comprises: five cycles comprising 60 sec. at 92° C., 60 sec. at 58° C. and 60 sec. at 74° C., followed by 25 cycles comprising 30 sec. at 92° C., 60 sec. at 60° C. and 60 sec. at 74° C., and to finish, the temperature is kept at 74° C. for another 3 minutes. Positive PCR amplifications are then determined by an electrophoresis on 1.2% agarose gel in 0.5×TAE buffer. […]

[7] = system: inflammation induced with adriamycin; assay: Rat model of inflammation induced with adriamycin; format: in vivo
[8] = system: inflammation induced with carrageenans; assay: Rat model of inflammation induced with carrageenans; format: in vivo

Row | Molecule | anti-inflammatory activity (rank order of SODs) [7] | anti-inflammatory activity (rank order of SODs) [8] | further results
1 | CN1CC=C(c2ccccc2)CC1 [MPTP] |  |  | death of macrophages by apoptosis (human macrophages [1]): induce their death by apoptosis; production of TNF-α by macrophages (human macrophages [2]): stimulate the production of TNF-α
2 | HSD1: bovine SOD (heterologous), Sigma, St Louis, Mo. |  |  | expression of glutathione peroxidase (GPx), Mn—SOD and inducible NO synthase (iNOs) [3]: stimulate the expression; lifting of HIV-Tat protein-induced inhibition of Mn—SOD expression (endogenous SOD activity) (Mn—SOD [4]): can be lifted
3 | HuSOD: recombinant human Cu/Zn SOD, homologous comparator |  |  | Mn—SOD expression (Mn—SOD [5]): remains undetectable; Gpx transcription [6]: does not enable it; lifting of HIV-Tat protein-induced inhibition of Mn—SOD expression (endogenous SOD activity) (Mn—SOD [4]): not lifted
4 | bovine Cu—SOD: Cu/Zn—SOD of bovine origin | bovine Cu—SOD>Mn—SOD of E. coli | Mn—SOD of E. coli>bovine Cu—SOD>human Cu—SOD>yeast Cu—SOD>plant Cu—SOD | 
5 | human Cu—SOD: human Cu—SOD |  | Mn—SOD of E. coli>bovine Cu—SOD>human Cu—SOD>yeast Cu—SOD>plant Cu—SOD | 
6 | rat Cu—SOD: rat (homologous) Cu—SOD | totally inactive | significant pro-inflammatory activity | 
7 | β-amyloid |  |  | death of macrophages by apoptosis (human macrophages [1]): induce their death by apoptosis; production of TNF-α by macrophages (human macrophages [2]): stimulate the production of TNF-α
8 | B1 | generates a pro-inflammatory response | Mn—SOD of E. coli>bovine Cu—SOD>human Cu—SOD>yeast Cu—SOD>plant Cu—SOD | 
9 | B2 | bovine Cu—SOD>Mn—SOD of E. coli | Mn—SOD of E. coli>bovine Cu—SOD>human Cu—SOD>yeast Cu—SOD>plant Cu—SOD | 
